Earlier results, collected in patent US20200268651A1, “STABLE VITAMIN B12 LIQUID FORMULATIONS” (priority 2019, published 2020).

Legend:
[1] = ascorbic acid (AH2), studied at pH 1.0-8.0
[2] = long-term use

Molecule | pH of maximum rate of degradation in the presence of ascorbic acid [1] | people with reduced serum levels of vitamin B12 [2]
C/C1=C2/[N-][C@H]([C@H](CC(N)=O)[C@@]2(C)CCC(=O)NC[C@@H](C)OP(=O)([O-])O[C@H]2[C@@H](O)[C@@H](n3cnc4cc(C)c(C)cc43)O[C@@H]2CO)[C@]2(C)N=C(/C(C)=C3N=C(/C=C4N=C1[C@@H](CCC(N)=O)C\4(C)C)[C@@H](CCC(N)=O)[C@]\3(C)CC(N)=O)[C@@H](CCC(N)=O)[C@]2(C)CC(N)=O.[Co+3].[OH-] [hydroxocobalamin] | 5.0 pH | –
CN(C)C(=N)N=C(N)N [metformin] | – | up to 30%
cyanocobalamin | 5.0 pH | –
